Results reported in patent publication US20120101163A1, “COMPOSITION FOR INHIBITING CANCER METASTASIS” (TAIPEI MEDICAL UNIVERSITY, priority 2010, published 2012).

Legend:
[1] = test system: matrix metalloproteinase-2; assay: Gelatin gel zymography of PMA-induced HT 1080 cells, MMP-2 activity; assay type: cell-based, Human
Experimental: 4. Gelatin Gel Zymography (Shim et al., 2003; Park et al., 2005; Hwang et al., 2006)
(§1) HT 1080 cells with appropriate cell numbers were cultured in 60 mm culturing plates for 12 hours, respectively. After the cells were attached onto the bottom of the plate and formed a monolayer, the medium in the plate was removed. Fresh serum free mediums with different concentrations of a test sample were added to the plates, respectively, and 100 nM PMA was added to each plate to induce the cells to express great quantities of matrix metalloproteinase-2 and matrix metalloproteinase-9, and the plates were placed in a temperature of 37° C. for 24 hours. After centrifugation, each cultured supernatant were saved and mixed with SDS-sample buffer under the same protein contents which were then injected into a 10% SDS-polyacrylamide gel (containing 1 mg/ml gelatin) and then electrophoresed. After the electrophoresis was completed, the gel was taken out and washed with 20 mM Tris-HCl containing 25% isopropanol three times; 10 minutes per time. Then the gel was equilibrated with 20 mM Tris-HCl for 30 minutes, and finally an incubate buffer (5 mM CaCl2 and 1 mM ZnCl2) was added to the gel and reacted with the gel overnight. Then the gel was stained with coomassie blue, and positions having matrix metalloproteinase activity of the gel presented a white color.

[2] = target: T1, matrix metalloproteinase-2 (Homo sapiens, UniProt P08253); assay: Extracellular inhibition test on enzyme activity of secreted MMP-2 in cultured medium; assay type: biochemical; settings: cultured medium of PMA induced HT 1080, different concentrations, 24 hours
T1 construct: matrix metalloproteinase-2 and matrix metalloproteinase-9 were secreted from the PMA induced HT 1080; endogenous in cells; host or cells: HT 1080 cells induced with 100 nM PMA
T1 sequence (P08253 110-660): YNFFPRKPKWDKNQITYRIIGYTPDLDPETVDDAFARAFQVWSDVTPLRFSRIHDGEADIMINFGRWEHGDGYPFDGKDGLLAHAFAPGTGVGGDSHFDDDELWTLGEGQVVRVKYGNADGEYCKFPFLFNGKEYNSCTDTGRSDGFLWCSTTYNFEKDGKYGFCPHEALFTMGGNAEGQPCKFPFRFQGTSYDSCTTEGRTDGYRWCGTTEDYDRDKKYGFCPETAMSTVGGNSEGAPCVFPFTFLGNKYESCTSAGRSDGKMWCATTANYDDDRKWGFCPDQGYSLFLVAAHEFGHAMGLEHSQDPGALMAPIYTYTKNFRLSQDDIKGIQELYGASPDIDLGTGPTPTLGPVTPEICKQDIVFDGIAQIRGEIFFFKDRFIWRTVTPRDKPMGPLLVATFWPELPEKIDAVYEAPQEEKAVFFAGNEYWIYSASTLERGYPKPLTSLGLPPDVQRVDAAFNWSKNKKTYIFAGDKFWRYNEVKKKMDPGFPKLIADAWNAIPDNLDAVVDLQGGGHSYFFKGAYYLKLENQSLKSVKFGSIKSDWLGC
Experimental: as §1, with “Then the gel was equilibrated with 20 mM Tris-HCl for 30 minutes, and finally an incubate buffer (5 mM CaCl2 and 1 mM ZnCl2) was added to the gel and reacted with the gel overnight. Then the gel was stained with coomassie blue, and positions having matrix metalloproteinase activity of the gel presented a white color.” left out
HT 1080 cells were induced with PMA, and the cultured medium for culturing the HT 1080 cells therefrom was taken out and treated with the different concentrations of L-Glutamic acid γ-hydroxamate (DH) for 24 hours, respectively. After that the enzyme activities of the matrix metalloproteinase-2 and matrix metalloproteinase-9 in the medium were analyzed. […]

[3] = test system: HT 1080 cells; assay: Cell adhesion assay (gelatin-coated plate); assay type: cell-based, Human
Experimental: 11. Cell Adhesion Assay (Lee et al., 2005; Ouyang et al., 2005; Zhang et al., 2005)
HT 1080 cells were used to prepare a cell suspension with an appropriate concentration by a fresh serum free medium, and the cell suspension was mixed with test drugs with different concentrations, respectively and then added to wells of a 24 well culturing plate pre-coated with gelatin, respectively. The 24 well culturing plates were placed in an incubator at 37° C. for 30 minutes. After that, the upper medium in each well was removed and the cells were washed with a PBS buffer twice, and then an MTT solution which was prepared with a medium was added to each well. After the 24 well culturing plates were placed in an incubator at 37° C. for reacting for 4-6 hours, an upper medium in each well was removed, and 100 μl of DMSO was added to each well to solubilize the formazan precipitates. After that, an ELISA reader was used to determine the absorbance at 600 nm for each well. The calculation for the adhesion rate of the cells was: […]

[4] = test system: B16-F10 cell line; assay: Tumor metastasis in an animal model (lung metastasis induced by B16-F10); assay type: in vivo, C57BL/6 mice; settings: mice, 50 mg/kg/day, 21 days
Experimental: 12. Tumor Metastasis in an Animal Model (Itoh et al., 2005; Lee et al., 2005; Ouyang et al., 2005; Zhang et al., 2005)
Experimental animal: C57BL/6, gray-brown fur
C57BL/6 mice were injected with 2×10^5 cells/0.1 ml of a B16-F10 cell line by a tail intravenous injection. Then, on the next day the mice were injected with a physiological saline solution or 50 mg/kg drug, daily, for 3 weeks. The mice were sacrificed and their lungs were removed at the third week. The lungs were washed with a PBS buffer and fixed with Bouin's solution.

[5] = test system: human umbilical vein endothelial cells; assay: Tube formation assay (angiogenesis); assay type: cell-based
Experimental: 13. Tube Formation Assay (Malinda et al., 1999)
1μ-Slide Angiogenesis ibiTreat chambers were coated with 10 μl Matrigel™ Mixtrix and placed in an incubator at 37° C. for 1 hour. 40 μl of a 3×10^5 cells/ml cell suspension was added to each chamber and left still for 20 minutes to let the cells attach to the chamber. After that, the medium in each chamber was removed. Fresh mediums with different concentrations of a test drug were added to the chambers, respectively and placed in an incubator at 37° C. After 18 hours, the angiogenesis appearance in each chamber was observed and photographed for recording.

SMILES: NC(CCC(=O)NO)C(=O)O [DH, L-Glutamic acid γ-hydroxamate]
- protein activity of matrix metalloproteinase-2 secreted out of and left in HT 1080 cells ([1]; 0.4, 0.8, 1.2, and 1.6, 24 hours): also decreased
- inhibition rate to the activity of matrix metalloproteinase-2 ([1]; HT 1080 cells treated 24 hours): greater than 50%
- matrix metalloproteinase-2 inhibiting activity ([1]; HT 1080 cells, 0.4, 0.8, 1.2 and 1.6 mM, 24 hours): increased while the concentration thereof was increased
- inhibition rate to the protein activity of metalloproteinase-2 of a cancer cell ([1]; about 0.1-2 mM, stated as embodiment, 'and/or' MMP-9): 40-70%
- direct inhibition of enzyme activity of secreted matrix metalloproteinase-2 [2]: no inhibition
- number of HT 1080 cells attached (adhesion) ([3]; 0.4, 1.2, 2 and 2.8 mM, gelatin coated plate, 30 minutes): slight dose dependent decreasing trend
- inhibition rate to cancer cell adhesion ([3]; about 0.1-3 mM, stated as embodiment): 10-30%
- lung metastasis and amount of metastasized pulmonary nodules [4]: significantly decreased
- lung weight [4]: recovered to a level similar to that of the control group
- pathological symptoms (fur picking, weight loss, hind limb debility) due to cancer metastasis, compared to blank group [4]: decreased
- survival till the end of the experiment ([4]; blank group 2 of 6 survived): six mice all survived
- inhibition rate to angiogenesis ([5]; about 0.1-1.5 mM, stated as embodiment): 10-90%
- angiogenesis compared with the control group ([5]; increasing concentrations): significantly inhibited
